Assay results from patent US20180099031A1, “DIABETES TREATMENT” (BETH ISRAEL DEACONESS MEDICAL CENTER, priority 2013, published 2018).

Test system: New onset diabetic NOD mice
Experiment: α1 anti-trypsin treatment of new onset diabetic NOD mice, blood glucose levels
Assay type: in vivo
Source text: Female NOD (NOD/LtJx) mice and NOD.SCID (NOD.CB17-Prkdcscid/J) mice were purchased from Jackson Laboratories (Bar Harbor, Me.) at 4 wks of age and maintained under pathogen-free conditions at the Harvard Institutes of Medicine (Boston, Mass.). The Harvard Medical School institutional review board approved all animal studies.
Blood glucose levels of NOD mice were monitored twice weekly with the Accu-Check blood glucose monitor system (Roche, Indianapolis, Ind.). When non-fasting blood glucose levels were in excess of 200 mg/dl on three consecutive measurements a diagnosis of new onset of diabetes was made. Mice with blood glucose levels between 250 to 350 mg/dl were used for the experiment described below. […] The 25% residual beta cell mass is similar to that found in newly diagnosed patients with T1DM.
New onset diabetic NOD mice were divided into two groups and treated with α1 anti-trypsin while simultaneously receiving intense insulin treatment (Group 1) or implantable insulin pellets (Group 2).
For the animals in Group 1, insulin doses were calibrated on the basis of three blood glucose measurements per day. The goal was to maintain blood glucose levels between 100-160 mg/dl. For blood glucose levels in excess of 160 mg/dl, NPH insulin was administered i.p. in doses ranging from 1 to 4 International Units depending upon the magnitude of hyperglycemia. For blood glucose level between 160 and 200 mg/dl, 1 IU was given. For blood glucose levels between 200 and 250 mg/dl, 2 IU of NPH insulin were given. For blood glucose levels between 250 and 300 mg/dl, 2 IU of NPH insulin were given. For blood glucose levels between 300 and 350 mg/dl, 3 IU of NPH insulin were given. For blood glucose levels in excess of 350 mg/dl, 4 IU of NPH insulin were given. Mice with high blood glucose levels in excess of 400 mg/dl for 2 days also received 0.2-0.4 ml warm normal saline subcutaneously in order to treat glycosuria-associated dehydration.
The animals in Group 2, LinBit™ sustained release insulin implants were used for management of hyperglycemia. LinBit™ sustained release insulin implants were purchased from LinShin Canada Inc. The LinBit™ implants (3-mm in length and 2 mm in diameter) were made from an admixture of insulin and micro-recrystallized palmitic acid and were erodible in vivo after being placed subcutaneously. The insulin release rate was about 0.1 U/day/implant for the time period over 2-4 weeks.
In our experiments, one or 2 LinBit™ implants were placed subcutaneously under the mid dorsal skin in newly onset diabetic mice with 3 previous measurements of blood glucose levels >200 mg/dL. The mice were anesthesized with ketamine/xylazine and the hair on the dorsal skin from a spot about 1 cm^2 was clipped using a small scissors with curved tips. […]

α1 anti-trypsin: Aralast NP, a human α1-proteinase inhibitor derived from pooled human plasma, purchased from Baxter
blood glucose levels (Group 1: with intense insulin therapy (NPH insulin i.p., three glucose measurements per day), Aralast NP 2 mg i.p. every 3 days, five injections, experiment 60-100 days, FIG. 1): fell to normoglycemic levels shortly after treatment began and remained at normal levels for the entire duration of the experiment | blood glucose levels shortly after treatment began (Group 2: with LinBit insulin implants s.c., Aralast NP 2 mg i.p. every 3 days, five injections, FIG. 2): fell to normoglycemic levels shortly after treatment began | effect on diabetic state (glucose levels maintained within normal limits (50-120 mg/dL) by intensive insulin therapy): curative effect | effect on diabetic state (hyperglycemic state managed by subcutaneously placed insulin pellets): less effective
